Assays:
[1] = Intrinsic dissolution rate (disc method, HPLC analysis); assay type: physicochemical; settings: phosphate buffer saline, 37° C., 200 rpm; for Intrinsic dissolution rate: 50 mg disc, drug equivalent to risperidone dissolved per unit area per unit time
Experimental: The risperidone hemipamoate of example-1 has intrinsic dissolution rates much less than that compared to risperidone alone as disclosed herein below. The intrinsic dissolution rates were determined by preparing discs of sample (50 mg) and performing dissolution by mounting the sample on shaft of dissolution apparatus with help of disc adaptor. The dissolution was performed in phosphate buffer saline, at 37° C. and rotation of 200 rpm. Samples were withdrawn at regular interval and analyzed by high performance liquid chromatography. The intrinsic dissolution rate was calculated as amount of drug (equivalent to risperidone) dissolved per unit area per unit time.

[2] = pK study in Wistar rats, aqueous suspensions by intramuscular route; assay type: in vivo, male wistar rats; settings: single IM dose, 3.6 mg equivalent risperidone base, aqueous suspension, figure-3
Experimental: A comparative evaluation of pharmacokinetic profile of Risperidone, Rispridone pamoate and Risperidone hemipamoate was carried out in male wistar rats. Aqueous suspension formulations of Risperidone base, Pamoate and hemipamoate salt containing 3.6 mg equivalent risperidone base were administered through intramuscular route. Each group (N=5) was administered a single dose. Blood samples were withdrawn at predefined time interval for measurement of Risperidone and 9-hydroxyrisperidone.

[3] = poorly soluble salt suspended in aqueous vehicle, dogs; cited from earlier work

SMILES | Intrinsic dissolution rate compared to risperidone alone [1] | Intrinsic dissolution rate [1] [mg/cm^2/h] | Absorption after IM administration [2] | Exposure duration compared to risperidone pamoate [2] | Plasma level course [2] | Period of effectiveness [3]
Cc1nc2n(c(=O)c1CCN1CCC(c3noc4cc(F)ccc34)CC1)CCCC2.Cc1nc2n(c(=O)c1CCN1CCC(c3noc4cc(F)ccc34)CC1)CCCC2.O=C(O)c1cc2ccccc2c(Cc2c(O)c(C(=O)O)cc3ccccc23)c1O [Risperidone hemipamoate] | much less | 0.49 | absorbed rapidly | remains sustained for longer duration | sustains for long duration comparatively | 
Cc1nc2n(c(=O)c1CCN1CCC(c3noc4cc(F)ccc34)CC1)CCCC2 [Risperidone pamoate, reference compound] |  |  | absorbed rapidly |  | falls quickly | over 2 week
Cc1nc2n(c(=O)c1CCN1CCC(c3noc4cc(F)ccc34)CC1)CCCC2 [Risperidone, 3-[2-[4-(6-fluoro-1,2-benzisoxazol-3-yl)-1-piperidinyl]ethyl]-6,7,8,9-tetrahydro-2-methyl-4H-pyrido[1,2-a]pyrimidin-4-one] |  | 1.89 |  |  |  | 
